# Measurements: patent US20120244601A1, “[…] INDUCIBLE GENE […]” (priority 2011, published 2012)
# B1: Riboswitch B: synthetic theophylline-responsive riboswitch, mRNA sequence SEQ ID NO: 12 (nucleic acid)
# chain: GGUACCGGUGAUACCAGCAUCGUCUUGAUGCCCUUGGCAGCACCCGCUGCGCAGGGGGUAUCAACAAGAUG
# modifications: chemistry not fully specified
# Tests used:
# [1] = test system: β-galactosidase; experiment: β-Galactosidase activity assay in M. smegmatis; type: cell-based
# [2] = test system: GFP; type: cell-based, M. tuberculosis
# [3] = test system: M. smegmatis RiboS-katG; experiment: Isoniazid antibiotic resistance assay, RiboS-katG strain
# [4] = test system: lacZ reporter gene; experiment: β-galactosidase assay in B. subtilis; settings: switches B and E compared
# Description: B. subtilis strain JH642 (2) was grown at 37° C. in LB with shaking (250 rpm). […] To assay for β-galactosidase activity, strains harboring the riboswitches were grown overnight in LB media with 20 μg/mL kanamycin. In the morning, cells were diluted 1:100 into fresh selective media containing 1 mM IPTG and either 0 or 2 mM theophylline. β-galactosidase assays were performed by the method of Miller (13) using permeabilization with toluene. […] Error bars are ±SD.
molecule,measurement,setting,value
Cn1c(=O)c2[nH]cnc2n(C)c1=O [theophylline],theophylline concentration of maximum β-galactosidase reporter expression,[1],~2 mM
same,theophylline concentration of maximal GFP expression,[2],~2 mM
NNC(=O)c1ccncc1 [isoniazid],isoniazid EC50 with increasing theophylline concentrations,[3]; 0-10 mM theophylline,the EC50 decreases
same,isoniazid phenotype in the absence of theophylline,[3]; no theophylline,isoniazid resistance phenotype
B1,activation ratios and levels of expression compared,[4],"comparable activation ratios, but substantially different levels of expression"
